This note sets out measurements from patent US20020037328A1, “Hexitol compositions and uses thereof” (priority 2000, published 2002).

This assay has as its system murine fibrosarcomas (RIF-1 cells). The experiment in a line: Tumor growth delay (tumor volume quadrupling time) of RIF-1 fibrosarcomas in C3H mice. The assay is classed as in vivo. The following applies: Dianhydrogalactitol 10 mg/kg, Cisplatin 4 mg/kg; for Delay (median TVQT of treated group minus control group) / TVQT/CTVQT (ratio of TVQT of treated tumor over untreated control) / Median (TVQT): RIF-1 tumors in C3H mice, i.p., combination 10 → 4 mg/kg (30 min apart); for TVQT/CTVQT (ratio of TVQT of treated tumor over untreated control): control 1.0; for Median (TVQT): control 6.3; for Mean TVQT ± S.E. (tumor volume quadrupling time): RIF-1 tumors intradermal in female C3H mice, single i.p. injection, combination 10 → 4 mg/kg (cisplatin 30 min after dianhydrogalactitol), 4 mice per group, untreated control 6.3 ± 0.3. On the procedure: Transplantable experimental murine fibrosarcomas (2×10^5 RIF-1 cells) were grown intradermally in the flanks of 3 month old female C3H mice (Charles River, Hollister, Calif.). When the tumors reached a volume of approximately 100 mm^3, the mice were randomly assigned to each experimental group (4 mice per group).
The experimental compositions were prepared as described in Table 1.
Dianhydrogalactitol was obtained from NCI and was made to the appropriate concentration in DMSO. Cisplatin (David Bull Laboratories- Mulgrave, Australia, lot. 5201844x) was made to the appropriate concentration in water for injection. The compositions were injected systemically (i.e., intraperitoneally, i.p.), in a volume of 100 microliters. For the treatment of group 3, dianhydrogalactitol, was injected 30 minutes prior to the injection of cisplatin. After treatment, the growth of the tumors was monitored three times per week by caliper measurements of three perpendicular diameters of the tumor and calculation of tumor volume from the formula: […]
where D1-3 are the diameters in mm of the three perpendicular axes.
The tumors were followed until they reached a size of four times their day zero treatment volume (TVQT), or up to 30 days after treatment, whichever came first. The data is expressed as the “tumor volume quadrupling time” (TVQT) mean and as the “delay.” Mean TVQT is the mean days required for individual tumors to grow to four times the tumor volume at the initial treatment day. The “delay” is the median of days required for a tumor to grow to four times the mean size of the treated group, minus the median of days required to grow to four times the mean size of the control group. The data is also expressed as the ratio of the tumor volume quadrupling time of the treated tumor over the untreated control group (TVQT/CTVQT). Increasing values of this ratio indicate increased antitumor response.

As for `N.N.[Cl][Pt][Cl]` [Cisplatin, cis-diamminedichloroplatinum II], the “Delay (median TVQT of treated group minus control group)” value came to 1.45 days, the “TVQT/CTVQT (ratio of TVQT of treated tumor over untreated control)” value worked out at 1.2, the “Median (TVQT)” value came to 7.7 days and the “Mean TVQT ± S.E. (tumor volume quadrupling time)” value came out at 7.4 ± 0.3 days.

Regarding `OC(C1CO1)C(O)C1CO1` (centres unmarked) [Dianhydrogalactitol, 1,2:5,6-Dianhydrogalactitol], the “Delay (median TVQT of treated group minus control group)” value was determined as 5.12 days, the “TVQT/CTVQT (ratio of TVQT of treated tumor over untreated control)” value is 1.7, the “Median (TVQT)” value is given as 11.4 days and the “Mean TVQT ± S.E. (tumor volume quadrupling time)” value turned out to be 10.9 ± 0.8 days.
